Here are results for one compound from BindingDB's records for doi:10.1021/np980173q (Kagoshima University, 1998).

The experiment deals with Enterococcus faecalis. As to the kind of experiment: Antimicrobial activity against Enterococcus faecalis 12964.

By IC50 is commonly meant the midpoint of a concentration-inhibition curve. Lower therefore signals higher potency. In turn, `CC(=CCn1c[n+](C)c2ncnc(N)c21)CC[C@@]1(C)[C@H](C)CC[C@@]2(C)C(C)=CCC[C@H]12` [AGELASINE B] came in with an IC50 of 13.7 µM.
